What is called IC50 is the point on the concentration scale where inhibition reaches its midpoint.

For one experiment, the target named is T1, NTCP (Homo sapiens, UniProt Q14973).
T1 sequence (Q14973 1-349): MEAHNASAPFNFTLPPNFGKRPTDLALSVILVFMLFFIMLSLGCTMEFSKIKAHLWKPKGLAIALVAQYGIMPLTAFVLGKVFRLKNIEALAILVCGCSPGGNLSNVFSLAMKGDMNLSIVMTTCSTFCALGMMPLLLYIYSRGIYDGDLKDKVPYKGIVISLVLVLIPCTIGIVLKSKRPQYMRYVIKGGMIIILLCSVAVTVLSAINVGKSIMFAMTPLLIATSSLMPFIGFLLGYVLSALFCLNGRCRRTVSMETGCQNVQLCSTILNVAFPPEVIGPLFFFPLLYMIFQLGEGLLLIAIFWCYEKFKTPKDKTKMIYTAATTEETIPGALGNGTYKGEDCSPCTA
Nature of the experiment: [3H]-TCA uptake assay (NTCP inhibition). To be noted: IC50, given as a range, marked * (asterisk not explained). The format is cell-based. Put shortly: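 PTH and HepG2-NTCP cells kept 24 h in PMM to induce NTCP, then exposed 2 h to test compounds or DMSO. Uptake of 1 μM [3H]-taurocholate in Na+ Ringer's buffer (145 mM Na) ran 15 min at 37° C. Cells washed, lysed in 1% Triton X-100, and radioactivity counted by liquid scintillation.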
Consider `CCC1NC(=O)C(C2OC(SCc3ccc(OC)cc3)CC2C)N(C)C(=O)C(C(C)C)N(C)C(=O)C(CC(C)C)N(C)C(=O)C(CC(C)C)N(C)C(=O)C(C)NC(=O)C(C)NC(=O)C(CC(C)C)N(C)C(=O)C(C(C)C)NC(=O)C(CC(C)C)N(C)C(=O)CN(C)C1=O` (stereo not drawn) [Compound 83A-s], for which the half-maximal inhibitory concentration (IC50) fell in the range of 1000 to 100000 nM.
The molecule `CCC1NC(=O)C(C2OC(Oc3ccc(OCc4ccccc4)cc3)CC2C)N(C)C(=O)C(C(C)C)N(C)C(=O)C(CC(C)C)N(C)C(=O)C(CC(C)C)N(C)C(=O)C(C)NC(=O)C(C)NC(=O)C(CC(C)C)N(C)C(=O)C(C(C)C)NC(=O)C(CC(C)C)N(C)C(=O)CN(C)C1=O` (stereo not drawn) [Compound 57A-o] came in with an IC50 of 1000 to 100000 nM.
In turn, `CCC1NC(=O)C(C2OC(Oc3ccc(OC)cc3)CC2C)N(C)C(=O)C(C(C)C)N(C)C(=O)C(CC(C)C)N(C)C(=O)C(CC(C)C)N(C)C(=O)C(C)NC(=O)C(C)NC(=O)C(CC(C)C)N(C)C(=O)C(C(C)C)NC(=O)C(CC(C)C)N(C)C(=O)CN(C)C1=O` (stereo not drawn) [Compound 26A-o] had an IC50 of 1000 to 100000 nM.
As to `CCC1NC(=O)C(C2OC(Oc3cccc(N(C)Cc4ccccc4)c3)CC2C)N(C)C(=O)C(C(C)C)N(C)C(=O)C(CC(C)C)N(C)C(=O)C(CC(C)C)N(C)C(=O)C(C)NC(=O)C(C)NC(=O)C(CC(C)C)N(C)C(=O)C(C(C)C)NC(=O)C(CC(C)C)N(C)C(=O)CN(C)C1=O` (stereo not drawn) [Compound 68-o], the IC50 lay within 1000 to 100000 nM.
The same measure, in the same setting: the result for `CCC1NC(=O)C(C2OC(Oc3ccccc3)CC2C)N(C)C(=O)C(C(C)C)N(C)C(=O)C(CC(C)C)N(C)C(=O)C(CC(C)C)N(C)C(=O)C(C)NC(=O)C(C)NC(=O)C(CC(C)C)N(C)C(=O)C(C(C)C)NC(=O)C(CC(C)C)N(C)C(=O)CN(C)C1=O` (stereo not drawn) [Compound 1B-o] reads 1000 to 100000 nM.
`CCC1NC(=O)C(C2OC(Oc3ccc4ccccc4c3)CC2C)N(C)C(=O)C(C(C)C)N(C)C(=O)C(CC(C)C)N(C)C(=O)C(CC(C)C)N(C)C(=O)C(C)NC(=O)C(C)NC(=O)C(CC(C)C)N(C)C(=O)C(C(C)C)NC(=O)C(CC(C)C)N(C)C(=O)CN(C)C1=O` (stereo not drawn) [Compound 62-o]: the IC50 lay within 1000 to 100000 nM.
`CCC1NC(=O)C(C2OC(SCc3cc(F)c(Cl)cc3Cl)CC2C)N(C)C(=O)C(C(C)C)N(C)C(=O)C(CC(C)C)N(C)C(=O)C(CC(C)C)N(C)C(=O)C(C)NC(=O)C(C)NC(=O)C(CC(C)C)N(C)C(=O)C(C(C)C)NC(=O)C(CC(C)C)N(C)C(=O)CN(C)C1=O` (stereo not drawn) [Compound 101A-s] returned an IC50 of 1000 to 100000 nM.

The experiment is the same for the next values; noted with them: IC50, given as a range; assay not given.
`CCC1NC(=O)C(C2OC(SCc3cccc(Cl)c3)CC2C)N(C)C(=O)C(C(C)C)N(C)C(=O)C(CC(C)C)N(C)C(=O)C(CC(C)C)N(C)C(=O)C(C)NC(=O)C(C)NC(=O)C(CC(C)C)N(C)C(=O)C(C(C)C)NC(=O)C(CC(C)C)N(C)C(=O)CN(C)C1=O` (stereo not drawn) [Compound 85A-s] yielded an IC50 of 1000 to 100000 nM.
The molecule `CCC1NC(=O)C(C2OC(Sc3ccc(CN4CCN(C)CC4)cc3)CC2C)N(C)C(=O)C(C(C)C)N(C)C(=O)C(CC(C)C)N(C)C(=O)C(CC(C)C)N(C)C(=O)C(C)NC(=O)C(C)NC(=O)C(CC(C)C)N(C)C(=O)C(C(C)C)NC(=O)C(CC(C)C)N(C)C(=O)CN(C)C1=O` [Compound 7A, [2-((2R,3R)-3-methyl-5-(4-((4-methylpiperazin-1-yl)methyl)phenylthio)tetrahydrofuran-2-yl)-2-(methylamino)acetic acid]^1-cyclosporin A] showed an IC50 of 1000 to 10000 nM.
For the molecule `CCC1NC(=O)C(C2OC(Sc3ccc(NC(C)=O)cc3)CC2C)N(C)C(=O)C(C(C)C)N(C)C(=O)C(CC(C)C)N(C)C(=O)C(CC(C)C)N(C)C(=O)C(C)NC(=O)C(C)NC(=O)C(CC(C)C)N(C)C(=O)C(C(C)C)NC(=O)C(CC(C)C)N(C)C(=O)CN(C)C1=O` [Compound 4A, [2-((2R,3R)-5-(4-acetamidophenylthio)-3-methyltetrahydrofuran-2-yl)-2-(methylamino)acetic acid]^1-cyclosporin A], the IC50 was 1000 to 10000 nM.
Still for that read-out and setting: then `CCC1NC(=O)C(C2OC(Sc3ccccc3)CC2C)N(C)C(=O)C(C(C)C)N(C)C(=O)C(CC(C)C)N(C)C(=O)C(CC(C)C)N(C)C(=O)C(C)NC(=O)C(C)NC(=O)C(CC(C)C)N(C)C(=O)C(C(C)C)NC(=O)C(CC(C)C)N(C)C(=O)CN(C)C1=O` [Compound 1B, [2-((2R,3R)-3-methyl-5-(phenylthio)tetrahydrofuran-2-yl)-2-(methylamino)acetic acid]^1-cyclosporin A], with 1000 to 100000 nM.

The same experiment, now with this note: given as a range, marked * (asterisk not explained).
As to `CCC1NC(=O)C(C2OC(Sc3cc(OC)cc(OCC4CCN(C)CC4)c3)CC2C)N(C)C(=O)C(C(C)C)N(C)C(=O)C(CC(C)C)N(C)C(=O)C(CC(C)C)N(C)C(=O)C(C)NC(=O)C(C)NC(=O)C(CC(C)C)N(C)C(=O)C(C(C)C)NC(=O)C(CC(C)C)N(C)C(=O)CN(C)C1=O` (stereo not drawn) [Compound 70], the IC50 lay in the range of 1000 to 100000 nM.
Still for that read-out and setting: then `CCC1NC(=O)C(C2OC(Oc3cc(OCCOC)cc(OCc4ccccc4)c3)CC2C)N(C)C(=O)C(C(C)C)N(C)C(=O)C(CC(C)C)N(C)C(=O)C(CC(C)C)N(C)C(=O)C(C)NC(=O)C(C)NC(=O)C(CC(C)C)N(C)C(=O)C(C(C)C)NC(=O)C(CC(C)C)N(C)C(=O)CN(C)C1=O` (stereo not drawn) [Compound 11-0], with 1000 to 100000 nM.

The experiment is the same for the next values; noted with them: given as a range; assay not given.
In turn, `CCC1NC(=O)C(C2OC(Sc3cccc(OCc4ccccc4F)c3)CC2C)N(C)C(=O)C(C(C)C)N(C)C(=O)C(CC(C)C)N(C)C(=O)C(CC(C)C)N(C)C(=O)C(C)NC(=O)C(C)NC(=O)C(CC(C)C)N(C)C(=O)C(C(C)C)NC(=O)C(CC(C)C)N(C)C(=O)CN(C)C1=O` [Compound 19A, [2-((2R,3R)-5-(3-(2-fluorobenzyloxy)phenylthio)-3-methyltetrahydrofuran-2-yl)-2-(methylamino)acetic acid]^1-cyclosporin A] showed an IC50 of 1 to 1000 nM.
`CCC1NC(=O)C(C2OC(SCc3cc(Cl)cc(Cl)c3)CC2C)N(C)C(=O)C(C(C)C)N(C)C(=O)C(CC(C)C)N(C)C(=O)C(CC(C)C)N(C)C(=O)C(C)NC(=O)C(C)NC(=O)C(CC(C)C)N(C)C(=O)C(C(C)C)NC(=O)C(CC(C)C)N(C)C(=O)CN(C)C1=O` [Compound 91A-s, [2-((2R,3R)-5-(3,5-dichlorobenzylthio)-3-methyltetrahydrofuran-2-yl)-2-(methylamino)acetic acid]^1-cyclosporin A] came in with an IC50 of 1 to 1000 nM.
In the case of `CCC1NC(=O)C(C2OC(Sc3cccc(OCc4ccc(F)cc4C)c3)CC2C)N(C)C(=O)C(C(C)C)N(C)C(=O)C(CC(C)C)N(C)C(=O)C(CC(C)C)N(C)C(=O)C(C)NC(=O)C(C)NC(=O)C(CC(C)C)N(C)C(=O)C(C(C)C)NC(=O)C(CC(C)C)N(C)C(=O)CN(C)C1=O` [Compound 24A, [2-((2R,3R)-5-(3-(4-fluoro-2-methylbenzyloxy)phenylthio)-3-methyltetrahydrofuran-2-yl)-2-(methylamino)acetic acid]^1-cyclosporin A], the IC50 is 1 to 1000 nM.
In turn, `CCC1NC(=O)C(C2OC(Sc3cccc(OCc4cccnc4)c3)CC2C)N(C)C(=O)C(C(C)C)N(C)C(=O)C(CC(C)C)N(C)C(=O)C(CC(C)C)N(C)C(=O)C(C)NC(=O)C(C)NC(=O)C(CC(C)C)N(C)C(=O)C(C(C)C)NC(=O)C(CC(C)C)N(C)C(=O)CN(C)C1=O` [Compound 53A, [2-((2R,3R)-3-methyl-5-(3-(pyridin-3-ylmethoxy)phenylthio)tetrahydrofuran-2-yl)-2-(methylamino)acetic acid]^1-cyclosporin A] showed an IC50 of 1 to 1000 nM.
As to `CCC1NC(=O)C(C2OC(Sc3cccc(OCc4ccc(F)cc4)c3)CC2C)N(C)C(=O)C(C(C)C)N(C)C(=O)C(CC(C)C)N(C)C(=O)C(CC(C)C)N(C)C(=O)C(C)NC(=O)C(C)NC(=O)C(CC(C)C)N(C)C(=O)C(C(C)C)NC(=O)C(CC(C)C)N(C)C(=O)CN(C)C1=O` [Compound 21A, [2-((2R,3R)-5-(3-(4-fluorobenzyloxy)phenylthio)-3-methyltetrahydrofuran-2-yl)-2-(methylamino)acetic acid]^1-cyclosporin A], the IC50 lay within 1 to 1000 nM.
For `CCC1NC(=O)C(C2OC(OCc3ccc(Cl)cc3)CC2C)N(C)C(=O)C(C(C)C)N(C)C(=O)C(CC(C)C)N(C)C(=O)C(CC(C)C)N(C)C(=O)C(C)NC(=O)C(C)NC(=O)C(CC(C)C)N(C)C(=O)C(C(C)C)NC(=O)C(CC(C)C)N(C)C(=O)CN(C)C1=O` [Compound 86A, [2-((2R,3R)-5-(4-chlorobenzyloxy)-3-methyltetrahydrofuran-2-yl)-2-(methylamino)acetic acid]^1-cyclosporin A], the IC50 is 1 to 1000 nM.
For the molecule `CCC1NC(=O)C(C2OC(OC(C)c3ccccc3)CC2C)N(C)C(=O)C(C(C)C)N(C)C(=O)C(CC(C)C)N(C)C(=O)C(CC(C)C)N(C)C(=O)C(C)NC(=O)C(C)NC(=O)C(CC(C)C)N(C)C(=O)C(C(C)C)NC(=O)C(CC(C)C)N(C)C(=O)CN(C)C1=O` (single isomer, unassigned) [Compound 78B], the IC50 was in the range of 1 to 1000 nM.

The experiment is the same for the next values; noted with them: given as a range; assay not given; read-out: IC50.
`CC[C@@H]1NC(=O)[C@H]([C@@H]2OC(Sc3cccc(OCc4ccc(F)cc4Cl)c3)C[C@H]2C)N(C)C(=O)[C@H](C(C)C)N(C)C(=O)[C@H](CC(C)C)N(C)C(=O)[C@H](CC(C)C)N(C)C(=O)[C@@H](C)NC(=O)[C@H](C)NC(=O)[C@H](CC(C)C)N(C)C(=O)[C@H](C(C)C)NC(=O)[C@H](CC(C)C)N(C)C(=O)CN(C)C1=O` (stereo partly drawn) [Compound 23A, [2-((2R,3R)-5-(3-(2-chloro-4-fluorobenzyloxy)phenylthio)-3-methyltetrahydrofuran-2-yl)-2-(methylamino)acetic acid]^1-cyclosporin A]: the IC50 is 1 to 1000 nM.

These data come from patent US10961231B2, “NTCP inhibitors” (National Institute of Biological Sciences, Beijing, priority 2018, dated 2021).
